Columns and labels:
[1] = system: patients undergoing CABG surgery; test: Phase 2 CABG trial: difficulty in weaning from bypass; assay type: in vivo, human; conditions: for WEANING TIME: Pts without Difficulty
Protocol: During surgery, anesthesia was maintained by continuous infusion of fentanyl and midazolam. Routine clinical parameters were recorded using standard operating room monitoring equipment. Continuous 2-lead Holter ECG and TEE data were recorded. Standard surgical procedures (e.g., aorta cross-clamping, crystalloid cardioplegia, cardiopulmonary bypass, hypothermia) were used. Anastomoses were constructed, aorta cross-clamp removed and patients were discontinued from bypass when body temperature was 37° C. The quality of anastomosis was judged by the surgeon. Difficulty in weaning from bypass was judged by need for one or more of the following: pacemaker, return to bypass, balloon pump or vasopressor administration. Hemodynamic measurements, including heart rate, arterial blood pressure, pulmonary capillary wedge pressure and cardiac output, were recorded before stemotomy, 15 and 30 min after bypass and upon chest closure. Radial artery and pulmonary artery pressures, myocardial and whole body temperature, O2 saturation, end-tidal CO2 and arterial blood gases were measured, and ECG recordings were obtained as clinically indicated. Hemodynamic variables (blood pressure, heart rate, pulmonary capillary wedge pressure) were controlled within 20% of baseline using prescribed regimens.
The incidence of adverse clinical outcomes, such as cardiac death (death of patient attributable to primarily cardiac causes, non-fatal transmural MI (as measured by the appearance of a new Q-wave on 12-lead ECG plus a CK-MB value of ≧50 units), non-transmural MI (CK-MB value of ≧50 units), congestive heart failure (low cardiac output requiring intra-aortic balloon pump or left ventricular assist device) or life-threatening dysrhythmia (ventricular fibrillation, or ventricular tachycardia requiring cardioversion or drug treatment) was compared between the placebo and treatment groups. For the diagnosis of myocardial infarction, ECG tracings and CK-MB values were assessed centrally by observers blinded to treatment. The difficulty of weaning the patient from bypass, if any, was compared between placebo and treatment groups by noting need for one or more of the following: pacemaker, return to bypass, balloon pump or use of vasopressors.
8. Difficulty in Weaning. Patients were considered to have difficulty in weaning if they needed one or more of the following interventions: pacemaker, return to bypass, balloon pump or use of vasopressors. The number of patients receiving each of the above interventions was analyzed using a X^2 and Fisher's exact test, as was the number of patients classified as having difficulty in weaning. In addition, the time to weaning (defined as time from cross-clamp removal to end of bypass) in the patients experiencing difficulty were compared by a 1-way analysis of variance.
As noted, patients were determined as being difficult to remove from cardiopulmonary bypass if they required one or more of the following interventions: insertion of a pacemaker, return to bypass, use of a balloon pump or administration of vasopressors, or another intervention which the investigation determines is indicative of difficulty in weaning. […] When a combination of the high and low dose groups were compared to placebo (Table 9b), the reduced need for vasopressor support approached statistical significance (p=0.08). […] There were no differences in any of the weaning difficulty parameters discussed above between the high and low dose groups (Table 9c).

myocardial infarct = test: Myocardial infarct size in rats after coronary artery ligation; assay type: in vivo, rat; conditions: bolus plus osmotic mini-pump infusion, three weeks, vs saline
From the text: The animals were continuously exposed by infusion of either AICA riboside in saline or saline using osmotic mini-pumps well known to those in the art. After three weeks, the rats were sacrificed and infarct size quantitated by planimarizing stained sections of fixed hearts.

With NC(=O)c1ncn([C@@H]2O[C@H](CO)[C@@H](O)[C@H]2O)c1N [1 (1-110), 5-amino-1-β-D-ribofuranosyl-imidazole-4-carboxamide] the “WEANING TIME” value ([1]; 0.05 mg/kg/min) was 20.4 +/− 2.5, the “WEANING TIME” value ([1]; 0.1 mg/kg/min) was 16.3 +/− 1.9 and the “PATIENTS WITH ANY DIFFICULTY WEANING” value ([1]; 0.05 + 0.10, 76 patients) was 15 (19.7%). For the same compound, the “PATIENTS WITH ANY DIFFICULTY WEANING” value ([1]; 0.05, 41 patients) was 7 (17%), the “PATIENTS WITH ANY DIFFICULTY WEANING” value ([1]; 0.10, 35 patients) was 8 (23%) and the “reduction of infarct size” value (myocardial infarct) was 33%.

— US8993527B2, “Methods, compositions, and formulations for preventing or reducing adverse effects in a patient” (Pericor Therapeutics, Inc., priority 2005, dated 2015)
